The results in this text go back to article PMC4640066 (Nature Communications, 2015).

Test [1] deals with T1, α/β-tubulin (Sus scrofa, UniProt P02550+P02554).
T1 construct: α/β-Tubulin was purified from porcine brain; from tissue; host or cells: porcine brain
In words: Tryptophan-based drug-binding assay, α/β-tubulin. Also on record: species or system porcine. The following applies: tryptophan fluorescence decrease; 1 μM protein; mean±s.d., three independent experiments. As to the method:
γ-TuSC was purified as described. Briefly, γ-TuSC was expressed in HighFive cells and purified by sequential steps of Ni-NTA (Macherei-Nagel) purification, MonoQ column purification (GE Healthcare) and size exclusion (Superdex 200 column, GE Healthcare)[14]. α/β-Tubulin was purified from porcine brain through four cycles of polymerization and depolymerization using 1 M PIPES buffer (1 M PIPES-KOH, 1 mM EGTA, 1 mM MgCl2, pH 6.8) for effective removal of MT-associated proteins.
(§1) Gel filtration buffer for γ-tubulin purification (50 mM MES pH 6.6, 500 mM KCl, 5 mM MgCl2, 1 mM EGTA and 1 mM DTT) supplemented with 10% of glycerol was used as an assay buffer. γ-tubulin and α/β-tubulin were diluted in this assay buffer to reach a final protein concentration of 1 μM. A final concentration of 10 μM or 1 mM GTP was added to the samples. Proteins were incubated for 30 min with compounds (final DMSO concentration was 1%; 2% for AG1 and gatastatin). […] Dissociation constants were calculated from fitting curves of decreasing fluorescence (ΔFL) using the GraphPad Prizm software.

Test [2] addresses T2, human γ-tubulin (Homo sapiens, UniProt P23258).
T2 construct: myc (C); 6His (C); made in house; host or cells: Sf21 insect cells (baculovirus)
In words: Tryptophan-based drug-binding assay, γ-tubulin. The following applies: for Ratio of Kd[α/β-tubulin]/Kd[γ-tubulin]: selectivity for γ-tubulin over α/β-tubulin; for Kd: tryptophan fluorescence decrease, 1 μM protein, mean±s.d., three independent experiments. The procedure:
In brief, 0.7 × 10^6 cells ml^−1 were infected with the γ-tubulin baculovirus. After 48 h, cells were collected by centrifugation at […] for 10 min and flash-frozen in liquid nitrogen and stored at −80 °C. Purification was carried out as described with slight modifications. […] Imidazole (final 10 mM) was added and the lysate was centrifuged again at 192,800g for 30 min at 4 °C. […] Ni-NTA Agarose was then washed twice with wash buffer 1 (lysis buffer containing 25 mM imidazole) and wash buffer 2 (50 mM MES pH 6.6, 500 mM KCl, 5 mM MgCl2, 10% glycerol, 10 μM GTP and 1 mM DTT) containing 25 mM imidazole. γ-Tubulin was eluted with wash buffer 2 containing 200 mM imidazole.
Monomeric γ-tubulin was prepared using a size exclusion column HiLoad 16/60 Superdex 200 pre-equilibrated with gel filtration buffer (50 mM MES pH 6.6, 500 mM KCl, 5 mM MgCl2, 1 mM EGTA, 10 μM GTP and 1 mM DTT). The peak fractions representing monomeric γ-tubulin were identified by A280 and confirmed using SDS–PAGE. Protein was concentrated using a Vivaspin concentrator (Sartorius) and supplemented with 10% glycerol, following snap-freezing in liquid nitrogen and storage at −80 °C.
as §1

The target of test [3] is T2, human γ-tubulin. In words: Inhibition of GTP binding of γ-tubulin (α-[32P]-GTP crosslinking assay). To be noted: 60 μM compound; 70 nM γ-tubulin, 100 nM α-[32P]-GTP; mean±s.d. The procedure: For analysis of the effect of drugs on GTP binding of γ-tubulin, 70 nM of purified human γ-tubulin in GTP-binding buffer (50 mM MES, 5 mM MgCl2, 1 mM EGTA, pH 6.6) was incubated with or without compounds for 15 min at 20 °C. A final concentration of 100 nM of α-[^32P]-GTP was added and incubated at 20 °C for 30 min. After incubation, bound α-[^32P]-GTP was crosslinked to γ-tubulin for 60 s by illumination with a ultraviolet lamp using CL-1000 Ultraviolet Crosslinker. Protein with the crosslinked GTP was separated from unbound nucleotide by TCA precipitation and SDS–PAGE, and ^32P labelling was measured using a Typhoon FLA-7000 (General Electronic Company). Band intensities were quantified with the ImageJ software.

Test [4] deals with γ-tubulin-dependent, RanQ69L-stimulated aster formation. In words: RanQ69L-stimulated aster formation in M-phase Xenopus egg extracts. It is filed as biochemical. The procedure:
(§2) Cytostatic factor (CSF)-arrested M phase Xenopus egg extracts (CSF extracts) were prepared. Briefly, unfertilized eggs were crushed by 10,700g centrifugation for 20 min. M phase extracts were mixed with 0.5 μM Cy3-labelled α/β-tubulin and various concentrations of compounds. After incubation for 30 min on ice, 15 μM RanQ69L, 200 sperm nuclei per μl or 5% DMSO were added and incubated for 30 min on ice. After incubation for 20 min at 20 °C (for the samples with sperm nuclei, the incubation time was 30 min), 1.5 μl sample was fixed with 1.5 μl fix solution (0.3 volume of 37% formaldehyde, 0.6 volume of 80% glycerol and 0.1 vol of 10 × MMR solution (50 mM HEPES, pH 7.8, 1 M NaCl, 20 mM KCl, 10 mM MgCl2, 20 mM CaCl2 and 1 mM EDTA)), followed by the squash fix.
(§3) Images were acquired using a microscope (Axiovert 200 M; Carl Zeiss Inc.) equipped with a plan-Apochromat × 63 NA 1.3 oil objective lens (Carl Zeiss Inc.), a Cy3 emission filter and a Cascade:1 K (Photometrics Inc.) camera, and the AxioVision software (Carl Zeiss Inc.). The aster size and fluorescence intensity were quantified using a macro written in MATLAB[41].

Test [5] concerns DMSO-stimulated, γ-tubulin-independent aster formation. In words: DMSO-stimulated aster formation in M-phase Xenopus egg extracts. It is filed as biochemical. The following applies: M-phase-arrested Xenopus egg extracts, 5% DMSO, 20 min at 20 °C. As to the method: as §2, §3
The subject of test [6] is HeLa cells expressing EB3-EGFP (interphase). In words: EB3-EGFP signal tracking, interphase cells. Type of test: cell-based, human. The following applies: 15 min; for Track length / Track lifetime / Velocity: interphase HeLa EB3-EGFP, mean±s.d.; for Track numbers: interphase, from a 144-μm^2 area inside the cell. As to the method:
A HeLa ‘Kyoto' cell line stably expressing EB3-EGFP (a kind gift from Dr J. Ellenberg) was maintained in DMEM+GlutaMAX (Gibco) supplemented with 10% FBS, 2 mM L-glutamine, 100 U ml^−1 penicillin, 100 μg ml^−1 streptomycin, 1 mM sodium pyruvate and 0.5 mg ml^−1 G418. Cells were seeded into eight-well Lab-Tek chambers (Nunc, Rochester, NY) for 24-h prior imaging. For imaging, the medium was exchanged to Live Cell Imaging Solution (Molecular Probes Life Technologies) supplemented as described above and containing various concentrations of AG1 or gatastatin. Interphase cells were incubated with drugs for 15 min and mitotic cells were treated as described in Fig. 4c. Then, EB3 tracks were observed under a PerkinElmer UltraVIEW ERS Spinning Disk microscope (Software: UltraVIEW ERS Imaging Suite) equipped with a Plan-APOCHROMAT × 100/1.4 Oil DIC objective, a Confocal Scanner Unit (Yokogawa CSU 22), a Hamamatsu EM CCD camera (C9100-50) and a 488-nm Argon laser at 37 °C, and time-lapse sequences were performed for 60 s with a 400-ms interval. Automatic analysis of EB3-EGFP signal tracks was performed with ImageJ (http://imagej.nih.gov/ij/) and Matlab (Mathworks) as described.

Test [7] concerns HeLa cells. Put plainly: Analysis of interphase MT network. Type of test: cell-based, human. To be noted: 30 μM, 2.5 h. The procedure:
HeLa cells were cultured in DMEM containing 10% FBS in a humidified atmosphere containing 5% CO2. After treatment with each compound for 2.5 h (interphase MT network) or 5 h (mitotic spindle), the cells were immediately fixed with cold MeOH (−20 °C). After blocking with PBS containing 0.5% bovine serum albumin, cells were incubated with anti-α-tubulin antibodies (1:500 dilution, Santa Cruz, Cat# sc-32293) to observe interphase cells, or with anti-BubR1 (1:250 dilution, BD Bioscience, Cat# 612502) and anti-α-tubulin (1:250 dilution, MBL, Cat# PM054) antibodies to observe mitotic spindle. After staining with Alexa^488-conjugated anti-mouse IgG (1:2,000 dilution, Invitrogen, Cat#A11001) and Alexa568-conjugated anti-rabbit IgG (1:2000 dilution, Invitrogen, Cat#A11011), cells were washed four times with PBS and mounted with PBS containing 0.1 μg ml^−1 DAPI. MTs and BubR1 signals were observed under a Leica LAS AF 6000 fluorescence microscope (Leica Microsystems) or an LSM 700 laser-scanning confocal microscope (Zeiss).

The target in test [8] is T2, human γ-tubulin. In words: GTP binding to recombinant γ-tubulin (UV crosslinking). To be noted: 70 nM γ-tubulin, α-[32P]-GTP. The procedure:
Supplementary Figure 2. Binding of GTP and GCP4 to recombinant human γ-tubulin
(a) GTP binding to γ-tubulin. 70 nM of γ-tubulin was mixed with indicated concentrations of α-[32P]-GTP, and cross-linked by UV irradiation. After separation of crosslinked γ-tubulin and unbound α-[32P]-GTP, radioactivity was detected with a phosphorimager. Band intensities were quantified with ImageJ. The Kd (121.1 nM) was calculated using GraphPad Prizm software. (b) Purified human γ-tubulin and GCP4 interaction was detected by gel filtration and SDS-PAGE. Equal volumes of γ-tubulin (1.5 µM) and GCP4 (4 µM), γ-tubulin (1.5 µM) and buffer, or GCP4 (4 µM) and buffer were mixed and incubated for 30 min at 20 °C. Proteins were separated by size exclusion column Superdex 200 10/300 GL pre-equilibrated with gel filtration buffer (50 mM MES pH6.6, 500 mM KCl, 5 mM MgSO4, 1 mM EGTA, 1 mM DTT, 10 µM GTP).
γ-Tubulin alone and GCP4 alone were eluted at retention times of 27 min and 24 min, respectively. The […]
GCP4 and γ-tubulin in these fractions were confirmed by SDS-PAGE and silver staining.
(1 picture or pasted object on this page, not shown here)

T2 sequence (P23258 whole entry): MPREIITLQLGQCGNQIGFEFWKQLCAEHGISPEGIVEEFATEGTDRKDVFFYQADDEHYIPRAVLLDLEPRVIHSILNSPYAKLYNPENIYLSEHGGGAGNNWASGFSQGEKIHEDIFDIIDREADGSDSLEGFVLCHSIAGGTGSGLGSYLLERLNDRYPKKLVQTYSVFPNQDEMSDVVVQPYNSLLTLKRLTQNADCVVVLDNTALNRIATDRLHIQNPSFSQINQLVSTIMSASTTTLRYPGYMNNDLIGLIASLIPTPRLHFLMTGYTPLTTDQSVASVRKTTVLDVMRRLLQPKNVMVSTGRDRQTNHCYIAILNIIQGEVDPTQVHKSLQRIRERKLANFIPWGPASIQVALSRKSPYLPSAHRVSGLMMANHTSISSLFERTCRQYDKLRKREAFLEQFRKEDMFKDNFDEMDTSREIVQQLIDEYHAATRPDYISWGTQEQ
T1 sequence (P02554 whole entry): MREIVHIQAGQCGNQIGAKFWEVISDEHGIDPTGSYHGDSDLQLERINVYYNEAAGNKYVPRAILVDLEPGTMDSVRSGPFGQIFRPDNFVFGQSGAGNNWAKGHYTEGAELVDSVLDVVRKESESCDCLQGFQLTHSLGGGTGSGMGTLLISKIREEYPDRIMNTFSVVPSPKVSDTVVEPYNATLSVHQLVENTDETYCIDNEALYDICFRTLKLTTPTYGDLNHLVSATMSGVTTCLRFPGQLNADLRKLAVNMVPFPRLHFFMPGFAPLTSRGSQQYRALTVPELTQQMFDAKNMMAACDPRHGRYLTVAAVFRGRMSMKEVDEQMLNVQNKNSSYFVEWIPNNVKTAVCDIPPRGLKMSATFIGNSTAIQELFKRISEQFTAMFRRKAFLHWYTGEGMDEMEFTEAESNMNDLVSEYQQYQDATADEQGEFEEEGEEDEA
T1 sequence (P02550 whole entry): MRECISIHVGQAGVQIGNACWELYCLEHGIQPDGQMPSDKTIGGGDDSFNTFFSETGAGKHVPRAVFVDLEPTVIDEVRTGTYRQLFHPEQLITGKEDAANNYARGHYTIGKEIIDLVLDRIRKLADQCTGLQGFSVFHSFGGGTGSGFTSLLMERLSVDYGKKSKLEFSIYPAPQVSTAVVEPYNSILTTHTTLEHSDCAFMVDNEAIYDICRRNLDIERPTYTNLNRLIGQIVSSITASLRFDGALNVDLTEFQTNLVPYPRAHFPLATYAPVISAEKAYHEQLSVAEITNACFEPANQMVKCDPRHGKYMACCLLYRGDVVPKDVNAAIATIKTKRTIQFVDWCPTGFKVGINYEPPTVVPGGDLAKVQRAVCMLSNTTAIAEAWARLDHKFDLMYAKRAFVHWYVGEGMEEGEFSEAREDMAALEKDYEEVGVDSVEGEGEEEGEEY

In test [1], `COc1cc2occ(-c3cc(OC)c4c(c3OC)OCO4)c(=O)c2cc1OC` [AG1, glaziovianin A, reference compound] yielded a dissociation constant (Kd) of 51.9 ± 36.4 µM. In addition, in test [2], the “Ratio of Kd[α/β-tubulin]/Kd[γ-tubulin]” value is 0.61 and the affinity, expressed as Kd, was 85.3 ± 22.8 µM. The “GTP binding (control %)” value in test [3] is given as 93.7±11.7%. The compound also came in with an IC50 in test [4] (M-phase-arrested Xenopus egg extracts, 15 μM RanQ69L, 20 min at 20 °C) of 0.44 µM. For the same compound, in test [4] (ratio of IC50 values), the “IC50[DMSO-aster]/IC50[RanQ69L-aster]” value is 3.14. Further, the IC50 in test [5] amounted to 1.37 µM. Also, in test [6] (1 μM), the Track length was found to be 0.73±0.09 μm, the Track lifetime stood at 3.30 ± 0.57 s, the Velocity stood at 9.59±1.01 μm min^−1 and the Track numbers was determined as 106±30. In test [6] (3 μM), the Track length was determined as 0.43±0.07 μm, the Track lifetime is 2.20 ± 0.67 s, the Velocity came out at 7.33±1.23 μm min^−1 and the Track numbers worked out at 110±42. In addition, the “Effect on interphase MT network” value in test [7] is recorded as “caused partial depolymerization of interphase MT network”.

`Nc1nc2c(ncn2[C@@H]2O[C@H](COP(=O)(O)OP(=O)(O)OP(=O)(O)O)[C@@H](O)[C@H]2O)c(=O)[nH]1` [GTP]: in test [8], the equilibrium dissociation constant (Kd) was 0.121 µM.

In turn, `COc1ccc(/C=c2\[nH]c(=O)/c(=C/c3cccc(C(=O)c4ccccc4)c3)[nH]c2=O)cc1` [KPU-406] had a Kd in test [1] of 26.3 ± 2 µM. For the same compound, in test [2], the “Ratio of Kd[α/β-tubulin]/Kd[γ-tubulin]” value came out at 0.57 and the affinity, expressed as Kd, was 46.1 ± 27.6 µM.

With `COC(=O)Nc1nc2ccc(C(=O)c3cccs3)cc2[nH]1` [Nocodazole], in test [1], the affinity, expressed as Kd, was 1.8 ± 0.6 µM. For the same compound, in test [2], the “Ratio of Kd[α/β-tubulin]/Kd[γ-tubulin]” value is 0.03 and binding was characterised by a dissociation constant (Kd) of 54.9 ± 19 µM.

With `CC(C)(C)c1[nH]cnc1/C=c1\[nH]c(=O)/c(=C/c2ccccc2)[nH]c1=O` [Plinabulin], the Kd in test [1] was 0.5 ± 0.1 µM; in test [2] it was 83.3 ± 18.5 µM. The entries for the “Ratio of Kd[α/β-tubulin]/Kd[γ-tubulin]” value in test [2] and in test [2] (listed as plinabulin) were 0.01 and under 0.05, respectively.
